Peptide text beside a SMILES is read from it. * marks the point of attachment. Bz = O=C(c1ccccc1)*
What was measured:
[1] = biological target: T1, Guinea pig serum ACE (Cavia porcellus, UniProt H0UWL7); assay: Kinetics of benzoyl-Phe-Ala-Pro hydrolysis (Example 6); type: biochemical; details: for V (reaction velocity): 37° C., 10 minutes
T1 sequence (H0UWL7 33-1234): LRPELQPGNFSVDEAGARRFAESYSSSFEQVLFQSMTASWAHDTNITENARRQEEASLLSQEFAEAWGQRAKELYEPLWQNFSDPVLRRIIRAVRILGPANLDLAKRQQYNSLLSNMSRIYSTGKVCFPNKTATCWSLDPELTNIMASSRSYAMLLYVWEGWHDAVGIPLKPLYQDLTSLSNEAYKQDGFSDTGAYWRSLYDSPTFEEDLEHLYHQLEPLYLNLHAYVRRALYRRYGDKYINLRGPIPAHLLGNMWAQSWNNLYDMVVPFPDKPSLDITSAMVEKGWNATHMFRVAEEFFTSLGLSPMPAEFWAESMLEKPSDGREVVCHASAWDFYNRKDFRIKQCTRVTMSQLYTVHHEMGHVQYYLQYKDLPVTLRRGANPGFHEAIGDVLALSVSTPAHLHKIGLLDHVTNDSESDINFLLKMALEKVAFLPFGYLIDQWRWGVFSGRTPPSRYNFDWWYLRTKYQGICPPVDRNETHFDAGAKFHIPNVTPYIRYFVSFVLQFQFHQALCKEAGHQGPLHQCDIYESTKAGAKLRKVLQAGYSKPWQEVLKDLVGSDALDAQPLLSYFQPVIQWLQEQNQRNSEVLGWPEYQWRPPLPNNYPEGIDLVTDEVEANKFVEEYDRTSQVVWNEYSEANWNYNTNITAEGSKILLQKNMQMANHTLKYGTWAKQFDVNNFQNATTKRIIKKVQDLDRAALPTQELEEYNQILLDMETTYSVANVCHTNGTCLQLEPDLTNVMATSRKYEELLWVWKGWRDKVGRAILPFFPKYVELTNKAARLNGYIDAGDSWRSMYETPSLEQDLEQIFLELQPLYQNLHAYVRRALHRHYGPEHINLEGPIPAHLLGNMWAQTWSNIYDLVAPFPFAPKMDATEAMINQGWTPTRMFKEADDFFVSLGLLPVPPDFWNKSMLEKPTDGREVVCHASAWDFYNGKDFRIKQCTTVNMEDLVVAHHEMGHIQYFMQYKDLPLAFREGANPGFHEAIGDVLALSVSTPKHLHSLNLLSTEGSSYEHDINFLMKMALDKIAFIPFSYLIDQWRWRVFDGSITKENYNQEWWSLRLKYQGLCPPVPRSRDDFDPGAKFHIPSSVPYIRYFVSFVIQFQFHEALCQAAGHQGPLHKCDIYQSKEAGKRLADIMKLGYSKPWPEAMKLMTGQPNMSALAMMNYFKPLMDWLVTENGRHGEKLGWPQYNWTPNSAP

[2] = tested on: ACE; assay: Response of 3H-benzoylPheAlaPro hydrolysis to ions; type: biochemical
Procedure: An even more sensitive assay for ACE activity has been developed using the novel compound ^3 H-benzoylPheAlaPro as substrate. This new substrate can be used to assay ACE in human urine in incubations as short as 15 minutes. The response of this substrate to ions is strikingly different from the response of HipHisLeu. […] This difficulty has been solved by the proper choice of extracting solvent. While a variety of organic solvents may be suitable for the extraction step, it is preferred to employ toluene. Approximately 88% of ^3 H-benzoylPhe enters the toluene phase while only 6% of the unhydrolyzed substrate enters the toluene phase, when toluene and the acidified reaction mixtures are in approximately equal volumes at room temperature.
The enzyme is active over a broad pH range with a maximum around pH 8.0, but is at least about 50% active in the range pH 7.0-pH 8.8, for both HipHisLeu and benzoylPheAlaPro. Although the enzyme is active in a variety of buffer systems known in the art, it is preferred for convenience, when using benzoylPheAlaPro as substrate, to conduct the assays in 0.05 M Hepes buffer, pH 8.0 containing 0.15 M sodium chloride. Detailed protocols for carrying out the assay are given in the examples. […] The preferred concentration range is 1×10^-9 M to 7×10^-5 M.

[3] = tested on: ACE from rabbit lung; details: removal of sodium chloride from the reaction medium; cited from earlier work
[4] = tested on: ACE; assay: Apparent Km for HipHisLeu without sulfate; type: biochemical
[5] = biological target: ACE (Homo sapiens, UniProt P12821); details: chloride absent; cited from earlier work
[6] = biological target: T1, Guinea pig serum ACE; assay: Kinetics of sulfate-stimulated HipHisLeu hydrolysis (Example 4); type: biochemical; details: for V (reaction velocity): pH 8.0, 0.1 M NaCl, 37° C., 10 minutes; for V (reaction velocity) / 1/V: 0.75 M Na2 SO4; for 1/V: 0.1 M NaCl
Procedure: In each assay, 50 μl of Guinea pig serum diluted 1-20 (v/v) in the reaction buffer was mixed with 50 μl of buffer containing sufficient ^3 H-HipHisLeu to provide approximately 100,000 cpm total, together with sufficient unlabeled HipHisLeu to produce the desired substrate concentrations, as indicated in Table 2. […] The reaction mixture was then extracted with 1 ml ethyl acetate. 500 μl of the ethyl acetate fraction was sampled and counted in a scintillation counter.

ACE (Homo sapiens, UniProt P12821), sequence (P12821 30-1306, species assumed): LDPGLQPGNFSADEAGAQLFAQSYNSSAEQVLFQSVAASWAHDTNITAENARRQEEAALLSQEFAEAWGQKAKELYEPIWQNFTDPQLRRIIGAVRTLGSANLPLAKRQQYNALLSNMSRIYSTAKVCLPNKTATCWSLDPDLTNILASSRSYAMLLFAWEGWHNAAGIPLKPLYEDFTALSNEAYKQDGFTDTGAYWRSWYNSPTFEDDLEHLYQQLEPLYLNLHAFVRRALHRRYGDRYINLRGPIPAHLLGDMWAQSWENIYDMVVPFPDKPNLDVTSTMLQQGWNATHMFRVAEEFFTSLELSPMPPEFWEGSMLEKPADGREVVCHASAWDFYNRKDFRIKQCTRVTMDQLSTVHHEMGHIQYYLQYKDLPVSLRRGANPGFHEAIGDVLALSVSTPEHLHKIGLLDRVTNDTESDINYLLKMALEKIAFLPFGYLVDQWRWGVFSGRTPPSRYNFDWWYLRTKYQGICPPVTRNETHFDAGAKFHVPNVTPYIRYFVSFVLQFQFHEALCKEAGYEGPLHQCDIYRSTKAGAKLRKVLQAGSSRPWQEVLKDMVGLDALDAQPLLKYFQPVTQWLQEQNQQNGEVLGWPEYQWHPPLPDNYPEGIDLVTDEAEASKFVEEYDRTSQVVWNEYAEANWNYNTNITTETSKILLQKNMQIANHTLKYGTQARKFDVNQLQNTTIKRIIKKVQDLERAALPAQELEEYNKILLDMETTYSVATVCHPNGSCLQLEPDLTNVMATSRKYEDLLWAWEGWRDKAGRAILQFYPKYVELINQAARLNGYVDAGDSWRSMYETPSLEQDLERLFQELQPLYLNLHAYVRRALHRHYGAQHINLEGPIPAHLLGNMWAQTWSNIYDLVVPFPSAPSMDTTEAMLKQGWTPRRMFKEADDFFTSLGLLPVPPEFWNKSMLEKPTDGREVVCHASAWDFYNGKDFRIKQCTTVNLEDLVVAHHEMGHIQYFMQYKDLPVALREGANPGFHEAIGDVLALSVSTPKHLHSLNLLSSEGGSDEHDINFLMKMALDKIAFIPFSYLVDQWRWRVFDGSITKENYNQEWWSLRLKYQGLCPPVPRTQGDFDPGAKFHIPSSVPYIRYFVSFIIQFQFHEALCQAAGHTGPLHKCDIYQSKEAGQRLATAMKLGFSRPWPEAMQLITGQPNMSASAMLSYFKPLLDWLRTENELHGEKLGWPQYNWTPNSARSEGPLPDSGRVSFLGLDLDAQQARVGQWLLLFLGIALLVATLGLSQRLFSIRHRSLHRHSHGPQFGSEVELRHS

## C[C@H](NC(=O)[C@H](Cc1ccccc1)NC(=O)c1ccccc1)C(=O)N1CCC[C@H]1C(=O)O [benzoylPheAlaPro, benzoyl-Phe-Ala-Pro] (Bz-Phe-Ala-Pro-OH)
[1]; 0.05 M Hepes, pH 8.0, 0.15 M NaCl, Guinea pig serum diluted 1:1000
  Vmax: 10 pmol/min/mL
[1]; 0.05 M Hepes, pH 8.0, 0.15 M NaCl, Lineweaver and Burke plot, read-out: apparent Km
  Km: 14 µM
[1]; BenzPheAlaPro concentration 1.0 μM
  1/V: 1.50 mL·min/pmol
[1]; BenzPheAlaPro concentration 1.0 μM, 0.05 M Hepes, pH 8.0, 0.15 M NaCl
  V (reaction velocity): 0.67 pmol/min/mL
[1]; BenzPheAlaPro concentration 5.0 μM
  1/V: 0.48 mL·min/pmol
[1]; BenzPheAlaPro concentration 5.0 μM, 0.05 M Hepes, pH 8.0, 0.15 M NaCl
  V (reaction velocity): 2.08 pmol/min/mL
[1]; BenzPheAlaPro concentration 10.0 μM
  1/V: 0.24 mL·min/pmol
[1]; BenzPheAlaPro concentration 10.0 μM, 0.05 M Hepes, pH 8.0, 0.15 M NaCl
  V (reaction velocity): 4.17 pmol/min/mL
[1]; BenzPheAlaPro concentration 66.7 μM
  1/V: 0.11 mL·min/pmol
[1]; BenzPheAlaPro concentration 66.7 μM, 0.05 M Hepes, pH 8.0, 0.15 M NaCl
  V (reaction velocity): 9.09 pmol/min/mL
[2]; 3H-benzoylPheAlaPro as substrate
  effect of sodium sulfate on hydrolysis: not stimulatory
[2]; added sodium chloride at 0.05 M, 0.05 M Hepes buffer at pH 8.0
  increase of apparent reaction velocity by added sodium chloride: approximately 3 fold

## CC(C)C[C@H](NC(=O)[C@H](Cc1c[nH]cn1)NC(=O)CNC(=O)c1ccccc1)C(=O)O [HipHisLeu] (Bz-Gly-His-Leu-OH)
[3]
  inhibition of hydrolysis: 92%
[4]
  Km: ~2600 µM
[5]
  inhibition of hydrolysis: 86%
[6]; 0.05 M Hepes, pH 8.0, 0.1 M NaCl and 0.75 M Na2 SO4, Lineweaver and Burke plot, read-out: apparent Km
  Km: 177 µM
[6]; HipHisLeu concentration 0.01 mM, 0.05 M Hepes
  V (reaction velocity): 0.30 nmol/min/mL
[6]; HipHisLeu concentration 0.01 mM
  1/V: 3.33 mL·min/nmol
[6]; HipHisLeu concentration 0.02 mM, 0.05 M Hepes
  V (reaction velocity): 0.52 nmol/min/mL
[6]; HipHisLeu concentration 0.02 mM
  1/V: 1.92 mL·min/nmol
[6]; HipHisLeu concentration 0.03 mM, 0.05 M Hepes
  V (reaction velocity): 0.74 nmol/min/mL
[6]; HipHisLeu concentration 0.03 mM
  1/V: 1.35 mL·min/nmol
[6]; HipHisLeu concentration 0.04 mM, 0.05 M Hepes
  V (reaction velocity): 1.28 nmol/min/mL
[6]; HipHisLeu concentration 0.04 mM
  1/V: 0.78 mL·min/nmol
[6]; HipHisLeu concentration 0.05 mM, 0.05 M Hepes
  V (reaction velocity): 1.14 nmol/min/mL
[6]; HipHisLeu concentration 0.05 mM
  1/V: 0.88 mL·min/nmol
[6]; HipHisLeu concentration 0.06 mM, 0.05 M Hepes
  V (reaction velocity): 1.28 nmol/min/mL
[6]; HipHisLeu concentration 0.06 mM
  1/V: 0.78 mL·min/nmol
[6]; HipHisLeu concentration 0.07 mM, 0.05 M Hepes
  V (reaction velocity): 2.14 nmol/min/mL
[6]; HipHisLeu concentration 0.07 mM
  1/V: 0.47 mL·min/nmol
[6]; HipHisLeu concentration 0.08 mM, 0.05 M Hepes
  V (reaction velocity): 1.76 nmol/min/mL
[6]; HipHisLeu concentration 0.08 mM
  1/V: 0.57 mL·min/nmol

— patent US4276378A, “High sensitivity assays for angiotensin converting enzyme” (priority 1977, dated 1981)
